Source: patent US20160229835A1, “NOVEL PYRIDYLOXYACETYL TETRAHYDROISOQUINOLINE COMPOUNDS USEFUL AS NAMPT INHIBITORS” (ELI LILLY AND COMPANY, priority 2013, published 2016)
Where two headings read alike, the source gives them in different places.

Key:
Type in all cases: cell-based
[1] = test system: TK10; test: Cell Proliferation Assay ±NA, TK10; details: Homo sapiens, TK-10, TK10, kidney, treatment time 72 hr
Protocol: (§1) The purpose of this assay is to measure the ability of a compound to inhibit proliferation of endometrium, kidney, adrenal gland, and autonomic ganglia cancer cell lines dependent on the NAMPT-mediated NAD^+ formation in the presence or absence of NA (10 μM) in vitro. One day before the planned initiation of compound treatment portion of the assay, one vial of assay ready frozen cells is thawed, and the cells are grown overnight in the media as shown in Table 3 under 5% CO2 at 37° C. Then, the cell layer is briefly rinsed with 0.25% (w/v) Trypsin-0.038% (w/v) EDTA solution followed with the addition of 3.0 ml of Trypsin-EDTA solution. Once the cell layer is dispersed, 8.0 ml of complete growth medium (Table 3) is added and cells are aspirated by gently pipetting. The cell suspension is transferred to a centrifuge tube and centrifuged at 800-1000 rpm for 3-5 minutes. The supernatant is discarded using a vacuum pump. The cell pellet is suspended in a complete medium by gently pipetting. The cell numbers are counted and adjusted to the appropriate density (Table 3). […] The bottom of each plate is pasted with a white back seal and luminescence is recorded using a Flexstation 3 with the following settings: Luminescence and integration time of 500 ms.

[2] = test system: OS-RC-2; test: Cell Proliferation Assay ±NA, OS-RC-2; details: Homo sapiens, OS-RC-2, kidney, treatment time 72 hr
Protocol: as §1

[3] = test system: SW13; test: Cell Proliferation Assay ±NA, SW13; details: Homo sapiens, SW13, adrenal gland, treatment time 72 hr
Protocol: as §1

[4] = test system: ACHN; test: Cell Proliferation Assay ±NA, ACHN; details: Homo sapiens, kidney, treatment time 72 hr
Protocol: as §1

[5] = test system: A704; test: Cell Proliferation Assay ±NA, A704; details: Homo sapiens, A704, kidney, treatment time 72 hr
Protocol: as §1

[6] = test system: HEC-1-A; test: Cell Proliferation Assay ±NA, HEC-1-A; details: Homo sapiens, endometrium, treatment time 72 hr, tested in a growth medium containing nicotinic acid
Protocol: as §1

[7] = test system: KLE; test: Cell Proliferation Assay ±NA, KLE; details: Homo sapiens, endometrium, treatment time 72 hr
Protocol: as §1

[8] = test system: RL95-2; test: Cell Proliferation Assay ±NA, RL95-2; details: Homo sapiens, RL95-2, endometrium, treatment time 72 hr
Protocol: as §1

[9] = test system: GOTO; test: Cell Proliferation Assay ±NA, GOTO; details: autonomic ganglia, treatment time 96 hr
Protocol: as §1

[10] = test system: Caki-1; test: Cell Proliferation Assay ±NA, Caki-1; details: Homo sapiens, Caki-1, kidney, treatment time 72 hr
Protocol: as §1

[11] = test system: COLO-684; test: Cell Proliferation Assay ±NA, COLO-684; details: Homo sapiens, COLO-684, endometrium, treatment time 72 hr
Protocol: as §1

[12] = test system: SNG-M; test: Cell Proliferation Assay ±NA, SNG-M; details: endometrium, treatment time 72 hr
Protocol: as §1

[13] = test system: NCI-H295; test: Cell Proliferation Assay ±NA, NCI-H295; details: NCI-H295, adrenal gland, treatment time 144 hr
Protocol: as §1

[14] = NA 0.0 μM, read-out: IC50 (μM) NA (0.0 μM)
[15] = NA 10 μM, read-out: IC50 (μM) NA (10 μM)

## CC(C)(O)CS(=O)(=O)Nc1ccc2c(c1)CCN(C(=O)COc1cccnc1)C2 [Example 1, 2-Hydroxy-2-methyl-N-[2-[2-(3-pyridyloxy)acetyl]-3,4-dihydro-1H-isoquinolin-6-yl]propane-1-sulfonamide]
[1]; [14]
  IC50: 0.22 µM
[1]; [15]
  IC50: 0.21 µM
[2]; [14]
  IC50: > 2 µM
[2]; [15]
  IC50: > 2 µM
[3]; [14]
  IC50: 0.05 µM
[3]; [15]
  IC50: 0.02 µM
[4]; [14]
  IC50: 0.11 µM
[4]; [15]
  IC50: > 2 µM
[5]; [14]
  IC50: 0.37 µM
[5]; [15]
  IC50: > 2 µM
[6]; [14]
  IC50: > 2 µM
[6]; [15]
  IC50: > 2 µM
[7]; [14]
  IC50: 0.04 µM
[7]; [15]
  IC50: > 2 µM
[8]; [14]
  IC50: 0.02 µM
[8]; [15]
  IC50: 0.02 µM
[9]; [14]
  IC50: 0.02 µM
[9]; [15]
  IC50: 0.02 µM
[10]; [14]
  IC50: 0.13 µM
[10]; [15]
  IC50: 0.11 µM
[11]; [14]
  IC50: 0.03 µM
[11]; [15]
  IC50: > 2 µM
[12]; [14]
  IC50: 0.02 µM
[12]; [15]
  IC50: 0.02 µM
[13]; [14]
  IC50: 0.1 µM
[13]; [15]
  IC50: 0.06 µM
